Results as given in patent US5318858A, “Antacid composition” (priority 1992, dated 1994).
Read-outs that look alike come from different tables or passages of the source. Each block holds one compound with its values, some of them ahead of it.

Columns and labels:
[1] = Acid neutralizing capacity (ANC) test and contribution of each active ingredient (21 C.F.R. 331); format: physicochemical
Method: Acid Neutralizing Capacity
Reagent standardization: as disclosed above.
Temperature: as disclosed above.
pH meter: as disclosed above.
Test suspension: the composition of Ex 1 was well-mixed and exactly 16.0 g (one unit dose) were transferred into a 250 ml glass beaker; sufficient water was added to obtain a total volume of about 70 ml; the resulting suspension was then mixed by means of a magnetic stirrer at 300±30 rpm for one minute. […]
Calculation of the mEq value: the number of mEq of acid neutralized by the test suspension was calculated as follows: […]
an accurately measured volume of an aluminum phosphate suspension containing exactly 9.904 g of aluminum phosphate gel, corresponding to the amount present in a one unit dose (16 g) of the antacid composition of Ex 1, were placed into a 250 ml glass beaker; distilled water was added up to a volume of 70 ml and the resulting suspension was mixed by means of a magnetic stirrer at 300±30 rpm for one minute; […]
Calculation: the percent contribution of each active ingredient in the total antacid composition of Ex 1 was calculated as follows: [formula]

[2] = Labelling of aluminum phosphate gel-containing antacid material with nuclide materials; format: physicochemical
Text: After testing several nuclide materials having suitable gamma energies in the range of from 60 to 500 keV, such as ^99m technetium-containing materials (^99m Tc-sulfur colloids, ^99m Tc-albumin microspheres, ^99m Tc-dimercaptosuccinic acid complexes, ^99m Tc-polyphosphates, -pyrophosphates and -diphosphonates), it appeared that ^99m Tc-hydroxymethylene diphosphonate (^99m Tc-HMDP) is the most suitable radiopharmaceutical material for labelling aluminum phosphate gel-containing antacid material.

[3] = oral, cited from earlier work
[4] = 21 C.F.R. 331; cited from earlier work

- contribution of active ingredient to ANC ([1]; amount present in one unit dose of Ex 1): 4.88 mEq
- percent contribution of active ingredient to total ANC ([1]; relative to total antacid composition of Ex 1): 40%
Compound: [O]=[Mg] [MgO, magnesium oxide]

- labelling efficiency [2]: high labelling efficiency
- adsorption onto the wall of the reaction vessels or tubes ([2]; mainly glass): substantially non-adsorbed
Compound: ^99m Tc-hydroxymethylene diphosphonate [^99m Tc-HMDP]

Compound: sucralfate
- Al-adhesiveness duration ([3]; no ulceration): 3 to 4 h
- Al-adhesiveness duration ([3]; ulcerated sites of the gastric mucous membrane): about 24 h
- antacid properties [4]: devoid of any antacid properties
